Read-outs that look alike come from different tables or passages of the source.

Assay [1] addresses T1, AHR (Homo sapiens, UniProt P35869).
T1 construct: U87 MG glioblastoma cells (ATCC #HTB-14) endogenously expressing AHR; endogenous in cells; host or cells: U87 MG glioblastoma cells (ATCC #HTB-14)
T1 sequence (P35869 11-848): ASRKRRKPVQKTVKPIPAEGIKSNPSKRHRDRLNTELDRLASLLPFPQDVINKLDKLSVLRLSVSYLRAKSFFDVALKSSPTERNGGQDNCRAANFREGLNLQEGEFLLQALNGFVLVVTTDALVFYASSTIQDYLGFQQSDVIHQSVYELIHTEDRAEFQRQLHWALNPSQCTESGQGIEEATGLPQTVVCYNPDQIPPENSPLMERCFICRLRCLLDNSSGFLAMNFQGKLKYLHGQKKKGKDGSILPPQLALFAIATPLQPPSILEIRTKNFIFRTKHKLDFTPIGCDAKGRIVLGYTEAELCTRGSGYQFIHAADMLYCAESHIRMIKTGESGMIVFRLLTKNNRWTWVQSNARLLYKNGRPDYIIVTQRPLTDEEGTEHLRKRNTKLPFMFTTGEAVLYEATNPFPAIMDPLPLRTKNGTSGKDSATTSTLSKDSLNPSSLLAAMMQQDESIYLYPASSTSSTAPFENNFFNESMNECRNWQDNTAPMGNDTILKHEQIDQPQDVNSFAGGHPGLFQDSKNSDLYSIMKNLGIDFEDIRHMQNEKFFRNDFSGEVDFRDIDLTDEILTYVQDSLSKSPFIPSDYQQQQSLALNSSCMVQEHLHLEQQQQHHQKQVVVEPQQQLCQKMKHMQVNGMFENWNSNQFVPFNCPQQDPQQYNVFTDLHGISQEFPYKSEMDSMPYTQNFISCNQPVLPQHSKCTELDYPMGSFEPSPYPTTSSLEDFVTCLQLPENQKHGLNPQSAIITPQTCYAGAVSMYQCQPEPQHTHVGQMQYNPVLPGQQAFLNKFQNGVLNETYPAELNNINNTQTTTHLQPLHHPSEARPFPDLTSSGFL
Kind of assay: In vitro assay 1: antagonism in human cell line (AHR transactivation, firefly luciferase reporter, kynurenic acid prestimulated). The class given is cell-based. As to conditions: AHR Antagonism Human IC50 [M]. Put shortly:
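U87 MG + DRE-firefly/constitutive-Renilla stable reporters; kynurenic acid prestim; dual-luc read; Renilla = tox; normalized vs pos/neg controls (pos: 150 μM KYNA + 5 μM staurosporine).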
A general note: Reporter assays use an easily measured gene product as a stand-in for the process of interest.

Assay [2] has as its target T2, AHR (Mus musculus, UniProt P30561).
T2 sequence (P30561 1-848 P471L/N533S/M589L): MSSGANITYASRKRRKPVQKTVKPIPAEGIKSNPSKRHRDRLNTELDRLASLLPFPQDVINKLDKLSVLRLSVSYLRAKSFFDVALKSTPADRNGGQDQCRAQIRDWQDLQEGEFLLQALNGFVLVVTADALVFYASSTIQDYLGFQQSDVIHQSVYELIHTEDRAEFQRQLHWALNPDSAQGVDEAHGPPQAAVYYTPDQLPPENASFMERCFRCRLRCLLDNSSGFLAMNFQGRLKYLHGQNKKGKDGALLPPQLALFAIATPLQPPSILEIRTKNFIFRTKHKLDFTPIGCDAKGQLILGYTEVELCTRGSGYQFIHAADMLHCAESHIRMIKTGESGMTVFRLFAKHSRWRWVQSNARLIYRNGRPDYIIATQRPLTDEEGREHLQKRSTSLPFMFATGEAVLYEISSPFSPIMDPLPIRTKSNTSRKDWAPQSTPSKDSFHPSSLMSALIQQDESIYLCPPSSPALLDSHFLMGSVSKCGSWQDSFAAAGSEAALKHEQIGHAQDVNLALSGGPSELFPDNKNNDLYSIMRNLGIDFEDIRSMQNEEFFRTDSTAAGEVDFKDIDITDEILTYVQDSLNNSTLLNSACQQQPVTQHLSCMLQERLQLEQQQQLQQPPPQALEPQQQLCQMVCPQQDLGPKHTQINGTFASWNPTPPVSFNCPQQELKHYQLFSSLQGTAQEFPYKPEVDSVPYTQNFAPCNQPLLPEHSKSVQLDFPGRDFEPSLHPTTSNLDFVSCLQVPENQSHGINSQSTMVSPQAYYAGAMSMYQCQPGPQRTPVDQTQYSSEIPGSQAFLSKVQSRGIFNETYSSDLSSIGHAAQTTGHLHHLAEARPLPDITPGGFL
The assay can be described thus: In vitro assay 3: antagonism in mouse cell line (AHR transactivation, firefly luciferase reporter, kynurenic acid prestimulated). The class given is cell-based. Put shortly:
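Mouse cells stably carrying a DRE-driven, AHR-inducible firefly luciferase reporter were prestimulated with the endogenous agonist kynurenic acid before compound addition. Luciferase activity was measured by luminescence and normalized to positive and negative controls, with cells lacking kynurenic acid serving as full-inhibition control. Repeat tests are reported as mean or median.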

The mark [3] stands for this setting: mouse Hepa 1c1c7 cells, 200 μM kynurenic acid, 20 hours, read-out: AHR Antagonism Mouse IC50.
Where [4] appears, read: Hepa 1c1c7 cells, 200 μM kynurenic acid, 20 hours, firefly luciferase reporter, read-out: AHR Antagonism Mouse IC50.

Broadly, the IC50 is the concentration needed to halve the response being measured. In the case of `Cc1ccc2nc(N[C@@H]3CCCCNC3=O)n3nc(-c4cnn(C)c4)nc3c2c1` [Example 158, (3R)-3-{[9-methyl-2-(1-methyl-1H-pyrazol-4-yl)[1,2,4]triazolo[1,5-c]quinazolin-5-yl]amino}azepan-2-one], the IC50 at AHR [1] was 1.77e-08 M; at AHR [2] (setting [3]), 32.2 nM.
The matching figures for `COc1ccc(-c2nc3c4cccc(Br)c4nc(N[C@H](C)C(=O)NCCN4CCN(C)CC4)n3n2)cc1` [Example 780, N^2-[7-bromo-2-(4-methoxyphenyl)[1,2,4]triazolo[1,5-c]quinazolin-5-yl]-N-[2-(4-methylpiperazin-1-yl)ethyl]-D-alaninamide]: 4.91e-09 M and 5.55 nM.
Regarding `COc1ccc(-c2nc3c4ccccc4nc(N[C@H](C)C(=O)NCCN(C)C)n3n2)cc1` [Example 787, N-[2-(dimethylamino)ethyl]-N^2-[2-(4-methoxyphenyl)[1,2,4]triazolo[1,5-c]quinazolin-5-yl]-D-alaninamide], the figures for the 50% inhibitory concentration (IC50) against AHR [1] (firefly luciferase reporter) and at AHR [2] (setting [4]) were 2.26e-08 M and 38.2 nM, respectively.
In the case of `CC[C@@H](Nc1nc2ccccc2c2nc(-c3cccc(C#N)c3)nn12)C(N)=O` [Example 382, (2R)-2-{[2-(3-cyanophenyl)[1,2,4]triazolo[1,5-c]quinazolin-5-yl]amino}butanamide], the IC50 against AHR [1] came out at 7.64e-09 M; at AHR [2] (setting [3]) it was 1.25 nM.
On the same counts, the results for `COc1cccc(-c2nc3c4ccc(F)cc4nc(N[C@@H]4CCCCNC4=O)n3n2)c1` [Example 148, (3R)-3-{[8-fluoro-2-(3-methoxyphenyl)[1,2,4]triazolo[1,5-c]quinazolin-5-yl]amino}azepan-2-one] are 8.12e-07 M and 2.41 nM.
As to `CCOC(=O)[C@@H](C)Nc1nc2c(Br)cccc2c2nc(-c3ccc(OC)cc3)nn12` [Example 865, ethyl N-[7-bromo-2-(4-methoxyphenyl)[1,2,4]triazolo[1,5-c]quinazolin-5-yl]-D-alaninate], the IC50 on AHR [1] (firefly luciferase reporter) was 4.02e-09 M; at AHR [2] (setting [4]), 11.8 nM.
The matching figures for `COc1ccc(-c2nc3c4cccc(OCCC(C)(C)OC)c4nc(N[C@@H]4CCCCNC4=O)n3n2)cc1` [Example 996, (3R)-3-{[7-(3-methoxy-3-methylbutoxy)-2-(4-methoxyphenyl)[1,2,4]triazolo[1,5-c]quinazolin-5-yl]amino}azepan-2-one]: 2.8e-07 M and 78.1 nM.
For the compound `N#Cc1ccc(-c2nc3c4cccc(Br)c4nc(N[C@@H]4CCCNC4=O)n3n2)cc1` [Example 560, 4-(7-bromo-5-{[(3R)-2-oxopiperidin-3-yl]amino}[1,2,4]triazolo[1,5-c]quinazolin-2-yl)benzonitrile], the IC50 at AHR [1] worked out at 3.8e-09 M; at AHR [2] (setting [3]), 5.57 nM.
As for `O=C1NCCCC[C@H]1Nc1nc2c(Br)cccc2c2nc(-c3cnn(CC4CC4)c3)nn12` [Example 826, (3R)-3-({7-bromo-2-[1-(cyclopropylmethyl)-1H-pyrazol-4-yl][1,2,4]triazolo[1,5-c]quinazolin-5-yl}amino)azepan-2-one], the half-maximal inhibitory concentration (IC50) at AHR [1] (firefly luciferase reporter) was 1.77e-09 M; on AHR [2] (setting [4]), 2.26 nM.
In the case of `Cc1cc(-c2nc3c4cccc(C(F)(F)F)c4nc(N[C@@H]4CCCCNC4=O)n3n2)n(C)n1` [Example 740, (3R)-3-{[2-(1,3-dimethyl-1H-pyrazol-5-yl)-7-(trifluoromethyl)[1,2,4]triazolo[1,5-c]quinazolin-5-yl]amino}azepan-2-one], the 50% inhibitory concentration (IC50) against AHR [1] amounted to 1.22e-09 M; at AHR [2] (setting [3]) it was 1.65 nM.
On to `Cc1ccccc1-c1nc2c3ccccc3nc(NC3CCNC3=O)n2n1` (single isomer, unassigned) [Example 51, 3-{[2-(2-methylphenyl)[1,2,4]triazolo[1,5-c]quinazolin-5-yl]amino}pyrrolidin-2-one], for which the half-inhibitory concentration (IC50) is 3.09e-08 M on AHR [1] and 131 nM at AHR [2] (setting [3]).
On the same counts, the results for `O=C1NCCCC[C@H]1Nc1nc2ccccc2c2nc(-c3ccncc3)nn12` [Example 126, (3R)-3-{[2-(pyridin-4-yl)[1,2,4]triazolo[1,5-c]quinazolin-5-yl]amino}azepan-2-one] are 1.3e-08 M and 14.8 nM.
The matching figures for `O=C1NCC[C@H]1Nc1nc2ccccc2c2nc(-c3cc(C(F)(F)F)cc(C(F)(F)F)c3)nn12` [Example 360, (3R)-3-({2-[3,5-bis(trifluoromethyl)phenyl][1,2,4]triazolo[1,5-c]quinazolin-5-yl}amino)pyrrolidin-2-one]: greater than 2e-05 M and 5440 nM.
The matching figures for `O=C1NCCCC[C@@H]1Nc1nc2c(Br)cccc2c2nc(-c3ccc(Cl)cc3OC(F)(F)F)nn12` [Example 572, (3S)-3-({7-bromo-2-[4-chloro-2-(trifluoromethoxy)phenyl][1,2,4]triazolo[1,5-c]quinazolin-5-yl}amino)azepan-2-one]: greater than 2e-05 M and 131 nM.
Regarding `CC[C@@H](Nc1nc2ccccc2c2nc(-c3cscc3OC)nn12)C(N)=O` [Example 338, (2R)-2-{[2-(4-methoxythiophen-3-yl)[1,2,4]triazolo[1,5-c]quinazolin-5-yl]amino}butanamide], the IC50 is 1.91e-07 M at AHR [1] and 53.9 nM at AHR [2] (setting [3]).
On the same counts, the results for `C[C@@H](Nc1nc2ccccc2c2nc(-c3cnn(C)c3)nn12)C(=O)NCCN(C)C` [Example 776, N-[2-(dimethylamino)ethyl]-N^2-[2-(1-methyl-1H-pyrazol-4-yl)[1,2,4]triazolo[1,5-c]quinazolin-5-yl]-D-alaninamide] are 2.92e-06 M and 1020 nM.
On the same counts, the results for `COc1ccccc1-c1nc2c3ccccc3nc(N[C@@H]3CCCCNC3=O)n2n1` [Example 61, (3R)-3-{[2-(2-methoxyphenyl)[1,2,4]triazolo[1,5-c]quinazolin-5-yl]amino}azepan-2-one] are 3.63e-08 M and 664 nM.
On the same counts, the results for `CS(=O)(=O)c1ccc(-c2nc3c4ccccc4nc(N[C@@H]4CCCCNC4=O)n3n2)cc1` [Example 372, (3R)-3-({2-[4-(methanesulfonyl)phenyl][1,2,4]triazolo[1,5-c]quinazolin-5-yl}amino)azepan-2-one] are 8.65e-09 M and 1.73 nM.
Take `COc1ccc(-c2nc3c4cccc(Br)c4nc(N[C@H](C)C(=O)NCCN4CCN(C(=O)OC(C)(C)C)CC4)n3n2)cc1` [Example 890, tert-butyl 4-[2-({N-[7-bromo-2-(4-methoxyphenyl)[1,2,4]triazolo[1,5-c]quinazolin-5-yl]-D-alanyl}amino)ethyl]piperazine-1-carboxylate]: the half-maximal inhibitory concentration (IC50) was found to be 4.05e-09 M at AHR [1] (firefly luciferase reporter) and 9.3 nM on AHR [2] (setting [4]).
Regarding `CC[C@H](Nc1nc2c(Br)cccc2c2nc(-c3ccnn3C)nn12)C(N)=O` [Example 801, (2S)-2-{[7-bromo-2-(1-methyl-1H-pyrazol-5-yl)[1,2,4]triazolo[1,5-c]quinazolin-5-yl]amino}butanamide], the IC50 was determined as 1.04e-07 M at AHR [1] (firefly luciferase reporter) and 40.5 nM at AHR [2] (read-out: AHR Antagonism Mouse IC50, Hepa 1c1c7 cells, 200 μM kynurenic acid, 20 hours, firefly luciferase reporter).
